Reference: paper PMC2772130 (Chemical research in toxicology, 2008)
Where two headings read alike, the source gives them in different places.

Tests used:
P450 1B1 [1] = target: T1, P450 1B1 (Homo sapiens, UniProt Q16678); experiment: Quenching of PAH; conditions: for interaction with P450 1B1 (quenching of inhibitor fluorescence): inhibitors at 10 nM
T1 sequence (Q16678 1-543): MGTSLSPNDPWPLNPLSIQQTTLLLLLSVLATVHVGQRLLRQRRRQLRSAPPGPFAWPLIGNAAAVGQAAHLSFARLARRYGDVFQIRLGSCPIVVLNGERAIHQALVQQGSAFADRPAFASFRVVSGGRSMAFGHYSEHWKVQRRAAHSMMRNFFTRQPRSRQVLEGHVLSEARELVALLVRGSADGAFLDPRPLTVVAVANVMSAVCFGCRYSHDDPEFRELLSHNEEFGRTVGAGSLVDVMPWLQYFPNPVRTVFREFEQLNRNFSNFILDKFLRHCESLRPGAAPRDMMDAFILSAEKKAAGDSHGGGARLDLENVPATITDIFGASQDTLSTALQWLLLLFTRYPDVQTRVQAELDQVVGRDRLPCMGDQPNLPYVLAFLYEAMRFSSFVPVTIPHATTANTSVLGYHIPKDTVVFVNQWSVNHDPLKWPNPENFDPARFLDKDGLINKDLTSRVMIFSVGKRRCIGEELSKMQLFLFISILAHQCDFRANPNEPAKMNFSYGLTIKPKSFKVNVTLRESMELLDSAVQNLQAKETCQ

P450 1B1 [2] = target: T1, P450 1B1; experiment: Inhibition of P450 1B1-dependent 7-ethoxyresorufin O-deethylation; conditions: for IC50: means and SE; for course of EROD Km values during the incubation: direct inhibitors
P450 1B1 [3] = target: T1, P450 1B1
P450 1B1 [4] = target: T1, P450 1B1; experiment: Spectral binding titrations with purified P450 1B1; conditions: for ΔAmax (ΔA~416-A~383) / wavelengths (peak/trough): 1 μM P450 1B1; for ΔAmax (ΔA~416-A~383): means ± S.E.; for wavelengths (peak/trough): pH 7.4
P450 1B1 [5] = target: T1, P450 1B1; experiment: Quenching of P450 1B1; type: binding; conditions: extrapolated % quenching; 1.0 μM P450 1B1
P450 1A2 [6] = target: T2, P450 1A2 (Homo sapiens, UniProt P05177); experiment: Inhibition of P450 1A2-dependent EROD activity; type: biochemical; conditions: 37 °C
T2 sequence (P05177 1-516): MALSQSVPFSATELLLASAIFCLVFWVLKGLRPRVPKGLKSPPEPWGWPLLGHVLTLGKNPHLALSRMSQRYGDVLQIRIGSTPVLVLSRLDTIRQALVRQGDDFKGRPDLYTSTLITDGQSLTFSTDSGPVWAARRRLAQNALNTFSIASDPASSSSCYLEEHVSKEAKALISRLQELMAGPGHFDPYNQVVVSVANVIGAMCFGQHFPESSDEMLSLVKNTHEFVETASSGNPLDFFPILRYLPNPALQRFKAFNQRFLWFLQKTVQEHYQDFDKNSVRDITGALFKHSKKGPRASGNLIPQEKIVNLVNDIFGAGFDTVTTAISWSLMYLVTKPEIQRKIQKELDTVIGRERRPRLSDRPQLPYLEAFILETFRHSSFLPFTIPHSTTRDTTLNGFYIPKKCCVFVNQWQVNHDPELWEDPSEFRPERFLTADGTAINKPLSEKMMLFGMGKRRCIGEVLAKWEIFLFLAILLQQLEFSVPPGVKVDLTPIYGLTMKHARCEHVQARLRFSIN

P450 1A1 [7] = target: T3, P450 1A1 (Homo sapiens, UniProt P04798); experiment: Inhibition of P450 1A1-dependent EROD activity; type: biochemical; conditions: for fold increase in EROD Km of P450 1A1: 1PP 66 nM, 3PPh 333 nM
T3 sequence (P04798 1-512): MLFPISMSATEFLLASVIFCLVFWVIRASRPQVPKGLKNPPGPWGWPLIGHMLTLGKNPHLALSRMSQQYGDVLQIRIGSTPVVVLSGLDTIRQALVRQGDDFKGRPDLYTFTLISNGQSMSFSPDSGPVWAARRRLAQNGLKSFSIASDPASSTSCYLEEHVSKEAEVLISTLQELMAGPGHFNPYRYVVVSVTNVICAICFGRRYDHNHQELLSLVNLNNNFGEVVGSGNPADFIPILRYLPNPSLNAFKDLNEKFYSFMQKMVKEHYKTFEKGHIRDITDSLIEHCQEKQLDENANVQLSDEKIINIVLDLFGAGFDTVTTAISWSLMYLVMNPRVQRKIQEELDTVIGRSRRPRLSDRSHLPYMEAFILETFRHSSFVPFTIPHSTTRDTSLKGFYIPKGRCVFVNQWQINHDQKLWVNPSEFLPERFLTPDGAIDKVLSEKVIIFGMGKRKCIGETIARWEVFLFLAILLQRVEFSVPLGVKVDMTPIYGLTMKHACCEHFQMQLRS

P450 1A2 [8] = target: T2, P450 1A2; experiment: Quenching of P450 fluorescence with inhibitors, P450 1A2; type: binding
P450 1A1 [9] = target: T3, P450 1A1; experiment: Quenching of P450 fluorescence with inhibitors, P450 1A1; type: binding
[10] = inhibition of EROD activity IC50, 15 s of incubation time (direct and direct/restore inhibitors)

Compound	IC50 (P450 1B1 [2]; [10])	ΔAmax / Ks (P450 1B1 [3])	Kd (P450 1B1 [4])	ΔAmax (ΔA~416-A~383) (P450 1B1 [4])	wavelengths (peak/trough) (P450 1B1 [4])	PAH binding to P450 1B1 Bmax (P450 1B1 [5])	further results
C#Cc1cc2cccc3ccc4cccc1c4c32 [4EP, 4-ethynylpyrene]	250 ± 20 nM	0.013	4000 ± 900 nM	0.052 ± 0.006	416/383	67 ± 3%	Kd (P450 1B1 [1]): 1.9 to 18 nM
C#Cc1cc2ccc3cccc4ccc(c1)c2c34 [2EP, 2-ethynylpyrene]	110 ± 20 nM	0.021	3400 ± 500 nM	0.071 ± 0.005	416/387	69 ± 3%	Kd (P450 1B1 [1]): 1.9 to 18 nM; course of EROD Km values during the incubation (P450 1B1 [2]): increased throughout the incubation period
c1ccc2c(c1)ccc1nc3ccc4ccccc4c3cc12 [DB[a,j]Ac, dibenz[a,j]acridine]	15 ± 2 nM						Kd (P450 1B1 [1]): 14 nM
C#Cc1cc2ccccc2c2ccccc12 [9EPh, 9-ethynylphenanthrene]	140 ± 18 nM	0.020	3600 ± 1000 nM	0.071 ± 0.010	415/383	52 ± 3%	course of EROD Km values during the incubation (P450 1B1 [2]): increased throughout the incubation period
C#Cc1ccc2ccc3ccccc3c2c1 [3EPh, 3-ethynylphenanthrene]	110 ± 16 nM	0.024	3000 ± 400 nM	0.071 ± 0.004	414/383	108 ± 22%	type of spectral change with P450 1B1 (P450 1B1 [4]; difference spectra): reverse type I
CC#Cc1ccc2ccc3ccccc3c2c1 [3PPh, 3-(1-propynyl)phenanthrene]	40 ± 3 nM	0.019	3100 ± 400 nM	0.060 ± 0.004	415/383	73 ± 5%	EROD kcat of P450 1B1 relative to controls (P450 1B1 [2]; 1PP 66 nM, 3PPh 33 nM, after 6 min of incubation): 56%; fold increase in EROD Km of P450 1B1 (P450 1B1 [2]; 1PP 66 nM, 3PPh 33 nM, at 15 s): 2.3 fold; EROD Km of P450 1B1 relative to control value (P450 1B1 [2]; 3PPh 33 nM, 6 min of incubation): one-third; EROD kcat of P450 1B1 relative to control, first decrease (P450 1B1 [2]; initial stage of incubation): ~ one-fifth; mechanism of inhibition of P450 1A2 EROD activity (P450 1A2 [6]): mechanism-based manner; fold increase in EROD Km of P450 1A1 (P450 1A1 [7]; at 360 s): 25 fold; fold increase in EROD Km of P450 1A1 (P450 1A1 [7]; initial incubation time): ~ 8 fold; mechanism of inhibition of P450 1A1 EROD activity (P450 1A1 [7]; 37 °C, 30 min): mechanism-based inhibitors
c1ccc2c(c1)-c1cccc3c1c-2cc1ccccc13 [B[b]FA, benzo[b]fluoranthene]	5 ± 1 nM					91 ± 2%	interaction with P450 1B1 (quenching of inhibitor fluorescence) (P450 1B1 [1]): not found; Kd (P450 1A2 [8]): ~10000 nM; Kd (P450 1A1 [9]): ~10000 nM
C#Cc1ccc(-c2ccccc2)cc1 [4Ebi, 4-ethynylbiphenyl]	3300 ± 500 nM		7600 ± 1200 nM	0.023 ± 0.002	416/383		course of EROD Km values during the incubation (P450 1B1 [2]): increased throughout the incubation period; ΔAmax / Ks (P450 1B1 [4]): 0.003
c1ccc2c3c(ccc2c1)-c1cccc2cccc-3c12 [B[j]FA, benzo[j]fluoranthene]	44 ± 6 nM						
c1ccc2cc3c(ccc4ccccc43)cc2c1 [B[a]A, benz[a]anthracene]						46 ± 1%	IC50 (P450 1B1 [2]; read-out: inhibition of EROD activity IC50, 15 s of incubation time (direct and direct/restore inhibitors)): 9 ± 1 nM
CC#Cc1ccc2c(ccc3ccccc32)c1 [2PPh, 2-(1-propynyl)phenanthrene]	100 ± 12 nM	0.030	2200 ± 100 nM	0.067 ± 0.001	415/383	77 ± 5%	Kd (P450 1B1 [1]): 1.9 to 18 nM
c1ccc2c(c1)-c1cccc3cccc-2c13 [FA, fluoranthene]	15 ± 1 nM					91 ± 2%	interaction with P450 1B1 (quenching of inhibitor fluorescence) (P450 1B1 [1]): not found; Kd (P450 1A2 [8]): ~10000 nM; Kd (P450 1A1 [9]): ~10000 nM
C#Cc1ccc2c(ccc3ccccc32)c1 [2EPh, 2-ethynylphenanthrene]	130 ± 21 nM	0.020	4200 ± 1300 nM	0.080 ± 0.013	414/383	62 ± 4%	Kd (P450 1B1 [1]): 1.9 to 18 nM; course of EROD Km values during the incubation (P450 1B1 [2]): increased throughout the incubation period
CC#Cc1ccc(-c2ccccc2)cc1 [4Pbi, 4-(1-propynyl)biphenyl]			12000 ± 5000 nM	0.074 ± 0.022	415/386		IC50 (P450 1B1 [2]; inhibition of EROD activity IC50, 6 min of incubation time (mechanism-based inhibitor)): 17000 ± 2000 nM; ΔAmax / Ks (P450 1B1 [4]): 0.005
CC#Cc1cc2ccccc2c2ccccc12 [9PPh, 9-(1-propynyl)phenanthrene]	110 ± 21 nM	0.015	3200 ± 300 nM	0.049 ± 0.002	416/383	61 ± 3%	course of EROD Km values during the incubation (P450 1B1 [2]): increased throughout the incubation period
Cc1cc2ccccc2c2ccc3ccccc3c12 [5MeCh, 5-methylchrysene]	8 ± 1 nM					83 ± 5%	interaction with P450 1B1 (quenching of inhibitor fluorescence) (P450 1B1 [1]): not found
c1ccc2c(c1)ccc1c3ccccc3ccc21 [chrysene]	92 ± 11 nM					84 ± 6%	interaction with P450 1B1 (quenching of inhibitor fluorescence) (P450 1B1 [1]): not found
Cc1ccc2cc3c(ccc4ccccc43)c3c2c1CC3 [3MC, 3-methylcholanthrene]	14 ± 2 nM					105 ± 6%	interaction with P450 1B1 (quenching of inhibitor fluorescence) (P450 1B1 [1]): not found
Cc1c2ccccc2c(C)c2c1ccc1ccccc12 [DMBA, 7,12-dimethylbenz[a]anthracene]	300 ± 33 nM					62 ± 1%	
C=Cc1ccc2ccc3cccc4ccc1c2c34 [1VP, 1-vinylpyrene]	88 ± 10 nM	0.021	4300 ± 500 nM	0.092 ± 0.006	416/383	65 ± 2%	Kd (P450 1B1 [1]): 1.9 to 18 nM; Kd (P450 1A2 [8]): ~10000 nM; Kd (P450 1A1 [9]): ~10000 nM
c1ccc2c(c1)c1cccc3ccc4cccc2c4c31 [B[e]P, benzo[e]pyrene]	17 ± 2 nM					100 ± 6%	interaction with P450 1B1 (quenching of inhibitor fluorescence) (P450 1B1 [1]): not found
C#Cc1ccc2ccccc2c1 [2EN, 2-ethynylnaphthalene]	190000 ± 16000 nM		15000 ± 8000 nM	0.049 ± 0.038	415/383		course of EROD Km values during the incubation (P450 1B1 [2]): increased throughout the incubation period; ΔAmax / Ks (P450 1B1 [4]): 0.003
